Laboratory results published in patent US10517889B2, “Modulators of SMAD7 expression” (Ionis Pharmaceuticals, Inc., priority 2017, dated 2019).
Strand notation (5' to 3'): a small letter for the sugar, then the base; units joined by * are phosphorothioate-linked, units joined directly phosphodiester-linked; [ ] holds rarer units or linkages, { } end groups; capitals alone tell only the bases. k = constrained ethyl (cEt); [5mC] = 5-methylcytosine; d = 2'-deoxy (DNA)

Test system: human SMAD7 mRNA
Assay: Antisense inhibition of human SMAD7 mRNA expression in Hep3B cells by 3-10-3 cEt gapmers, 10,000 nM, electroporation (Example 2)
Assay type: cell-based
Conditions: Hep3B cells, electroporation with 10,000 nM antisense oligonucleotide, approximately 24 hours, SMAD7 mRNA by RT-PCR (RTS5062), relative to untreated control cells
Outline: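 Hep3B, 20,000 cells/well; electroporation, 10,000 nM ASO; ~24 h. Readout: SMAD7 mRNA by qRT-PCR (RTS5062), RIBOGREEN-normalised; % inhibition vs untreated.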

Row | Substance | % Inhibition [%]
1 | 830151 (antisense kG*k[5mC]*k[5mC]*dA*dG*dT*dG*dG*dT*dG*dA*d[5mC]*d[5mC]*kT*k[5mC]*k[5mC]) [compound 830151] | 45
2 | 830152 (antisense k[5mC]*k[5mC]*k[5mC]*dG*dG*dA*dG*dA*dG*dG*dA*dA*dG*k[5mC]*k[5mC]*kT) [compound 830152] | 23
3 | 830153 (antisense kG*k[5mC]*k[5mC]*dT*d[5mC]*dA*dG*d[5mC]*dA*dG*dT*dT*dA*kA*kT*kA) [compound 830153] | 21
4 | 830154 (antisense kG*kT*kG*d[5mC]*d[5mC]*dT*d[5mC]*dA*dG*d[5mC]*dA*dG*dT*kT*kA*kA) [compound 830154] | 48
5 | 830155 (antisense kT*kG*kT*dG*d[5mC]*d[5mC]*dT*d[5mC]*dA*dG*d[5mC]*dA*dG*kT*kT*kA) [compound 830155] | 38
6 | 830156 (antisense k[5mC]*kT*kG*dT*dG*d[5mC]*d[5mC]*dT*d[5mC]*dA*dG*d[5mC]*dA*kG*kT*kT) [compound 830156] | 48
7 | 830158 (antisense kA*kA*kT*dT*dG*dA*dG*dA*dA*d[5mC]*dT*dG*dT*kG*k[5mC]*k[5mC]) [compound 830158] | 43
8 | 830159 (antisense k[5mC]*k[5mC]*kA*d[5mC]*dT*dA*dA*dA*dT*dT*dG*dA*dG*kA*kA*k[5mC]) [compound 830159] | 42
9 | 830160 (antisense kT*kG*kG*dT*dG*dT*dG*dT*dT*dA*dA*d[5mC]*d[5mC]*kA*k[5mC]*kT) [compound 830160] | 54
10 | 830161 (antisense kA*kG*kG*dT*dG*dA*dA*dA*dG*dT*dT*dA*dT*k[5mC]*kA*k[5mC]) [compound 830161] | 13
11 | 830162 (antisense kA*k[5mC]*kA*dA*dG*dG*dT*dG*dA*dA*dA*dG*dT*kT*kA*kT) [compound 830162] | 20
12 | 830164 (antisense kG*k[5mC]*kT*dG*d[5mC]*dT*dT*dG*dG*d[5mC]*d[5mC]*dT*dT*kA*k[5mC]*k[5mC]) [compound 830164] | 38
13 | 830165 (antisense kA*k[5mC]*kA*dG*d[5mC]*dT*dG*dT*dA*d[5mC]*d[5mC]*dA*dG*kG*kG*k[5mC]) [compound 830165] | 58
14 | 830166 (antisense k[5mC]*kA*k[5mC]*dA*dG*d[5mC]*dT*dG*dT*dA*d[5mC]*d[5mC]*dA*kG*kG*kG) [compound 830166] | 48
15 | 830167 (antisense kT*kT*kT*dA*d[5mC]*dA*d[5mC]*dA*d[5mC]*d[5mC]*d[5mC]*d[5mC]*dA*kG*kG*kG) [compound 830167] | 39
16 | 830169 (antisense k[5mC]*kT*k[5mC]*dT*dG*dT*dT*dT*dG*dG*dA*d[5mC]*dA*kA*kG*kT) [compound 830169] | 58
17 | 830171 (antisense kT*kG*k[5mC]*dT*d[5mC]*dT*dG*dT*dT*dT*dG*dG*dA*k[5mC]*kA*kA) [compound 830171] | 26
18 | 830172 (antisense k[5mC]*kT*kG*d[5mC]*dT*d[5mC]*dT*dG*dT*dT*dT*dG*dG*kA*k[5mC]*kA) [compound 830172] | 27
19 | 830173 (antisense kA*kG*kA*dG*dG*dT*dG*dT*dT*dT*d[5mC]*d[5mC]*dA*kA*kG*kG) [compound 830173] | 48
20 | 830174 (antisense kG*kA*kG*dA*dG*dG*dT*dG*dT*dT*dT*d[5mC]*d[5mC]*kA*kA*kG) [compound 830174] | 49
21 | 830175 (antisense kT*k[5mC]*kT*d[5mC]*dA*dA*d[5mC]*dA*dG*dA*d[5mC]*d[5mC]*dA*k[5mC]*kA*k[5mC]) [compound 830175] | 44
22 | 830176 (antisense kA*kT*kT*d[5mC]*dT*d[5mC]*dA*dA*d[5mC]*dA*dG*dA*d[5mC]*k[5mC]*kA*k[5mC]) [compound 830176] | 61
23 | 830177 (antisense k[5mC]*kA*kG*d[5mC]*d[5mC]*d[5mC]*dT*dT*dT*d[5mC]*dA*d[5mC]*d[5mC]*k[5mC]*k[5mC]*kT) [compound 830177] | 40
24 | 830178 (antisense kA*k[5mC]*kG*dA*d[5mC]*dA*dG*d[5mC]*d[5mC]*dT*dG*dG*dA*kG*kA*k[5mC]) [compound 830178] | 32
25 | 830179 (antisense kT*kT*kT*dA*d[5mC]*dT*dG*d[5mC]*dA*dT*dT*d[5mC]*d[5mC]*kG*kG*k[5mC]) [compound 830179] | 51
26 | 830181 (antisense kG*k[5mC]*kG*dG*d[5mC]*dT*dT*d[5mC]*d[5mC]*dT*dG*dT*dG*k[5mC]*k[5mC]*k[5mC]) [compound 830181] | 10
27 | 830182 (antisense kG*kT*kG*dT*d[5mC]*d[5mC]*dT*dT*d[5mC]*dA*dG*dA*dA*k[5mC]*kA*k[5mC]) [compound 830182] | 0

Row | Substance | % Inhibition [%]
28 | 830183 (antisense k[5mC]*kG*kG*dT*dT*dG*d[5mC]*d[5mC]*dT*d[5mC]*dA*dT*d[5mC]*k[5mC]*kT*kG) [compound 830183] | 47
29 | 830184 (antisense kA*k[5mC]*kG*dG*dT*dT*dG*d[5mC]*d[5mC]*dT*d[5mC]*dA*dT*k[5mC]*k[5mC]*kT) [compound 830184] | 48
30 | 830185 (antisense kG*k[5mC]*k[5mC]*dA*d[5mC]*d[5mC]*dA*dA*d[5mC]*dG*dG*dT*dT*kG*k[5mC]*k[5mC]) [compound 830185] | 27
31 | 830186 (antisense kA*kG*kG*dT*d[5mC]*d[5mC]*dA*dG*dG*dG*dT*d[5mC]*d[5mC]*kT*k[5mC]*k[5mC]) [compound 830186] | 50
32 | 830187 (antisense kA*kT*kT*dA*d[5mC]*d[5mC]*d[5mC]*dT*dG*d[5mC]*dT*d[5mC]*dA*kT*kG*kA) [compound 830187] | 31
33 | 830188 (antisense k[5mC]*k[5mC]*kA*d[5mC]*dT*dT*dA*dG*d[5mC]*dA*dA*dG*dG*kA*kG*k[5mC]) [compound 830188] | 50
34 | 830189 (antisense kT*kT*kG*dG*dA*dG*d[5mC]*dA*dA*d[5mC]*dA*d[5mC]*d[5mC]*kA*kG*kA) [compound 830189] | 49
35 | 830190 (antisense kT*kA*kA*dT*d[5mC]*dA*dG*dA*dT*dG*d[5mC]*d[5mC]*dT*kG*k[5mC]*kT) [compound 830190] | 39
36 | 830191 (antisense k[5mC]*kT*kA*dA*dT*d[5mC]*dA*dG*dA*dT*dG*d[5mC]*d[5mC]*kT*kG*k[5mC]) [compound 830191] | 47
37 | 830192 (antisense kA*k[5mC]*kT*dA*dA*dT*d[5mC]*dA*dG*dA*dT*dG*d[5mC]*k[5mC]*kT*kG) [compound 830192] | 41
38 | 830193 (antisense k[5mC]*kT*kT*dT*dT*d[5mC]*d[5mC]*dG*dG*dT*dA*dT*dT*kT*kT*k[5mC]) [compound 830193] | 35
39 | 830194 (antisense k[5mC]*k[5mC]*kT*dT*dT*dT*d[5mC]*d[5mC]*dG*dG*dT*dA*dT*kT*kT*kT) [compound 830194] | 49
40 | 830195 (antisense kA*kA*k[5mC]*d[5mC]*dT*dT*dT*dT*d[5mC]*d[5mC]*dG*dG*dT*kA*kT*kT) [compound 830195] | 35
41 | 830196 (antisense kT*kT*kA*dA*dT*dG*dG*d[5mC]*d[5mC]*d[5mC]*dA*dG*d[5mC]*k[5mC]*k[5mC]*kA) [compound 830196] | 31
42 | 830197 (antisense kG*kT*kT*dA*dA*dT*dG*dG*d[5mC]*d[5mC]*d[5mC]*dA*dG*k[5mC]*k[5mC]*k[5mC]) [compound 830197] | 31
43 | 830198 (antisense kA*kG*kG*d[5mC]*dT*dA*d[5mC]*dA*d[5mC]*d[5mC]*dA*dA*dA*kG*kA*k[5mC]) [compound 830198] | 30
44 | 830199 (antisense kA*kA*kG*dG*d[5mC]*dT*dA*d[5mC]*dA*d[5mC]*d[5mC]*dA*dA*kA*kG*kA) [compound 830199] | 37
45 | 830200 (antisense kG*kA*kA*dG*dG*d[5mC]*dT*dA*d[5mC]*dA*d[5mC]*d[5mC]*dA*kA*kA*kG) [compound 830200] | 33
46 | 830201 (antisense k[5mC]*kT*kG*dA*dA*dG*dG*d[5mC]*dT*dA*d[5mC]*dA*d[5mC]*k[5mC]*kA*kA) [compound 830201] | 37
47 | 830202 (antisense kT*k[5mC]*kT*dG*dA*dA*dG*dG*d[5mC]*dT*dA*d[5mC]*dA*k[5mC]*k[5mC]*kA) [compound 830202] | 50
48 | 830203 (kG*k[5mC]*kT*d[5mC]*dT*dG*dA*dA*dG*dG*d[5mC]*dT*dA*k[5mC]*kA*k[5mC]; antisense) [compound 830203] | 40
49 | 830204 (kG*kT*kA*dT*d[5mC]*d[5mC]*dA*dT*d[5mC]*dA*dA*d[5mC]*dT*kG*k[5mC]*kT; antisense) [compound 830204] | 59
50 | 830205 (kG*kA*k[5mC]*dT*d[5mC]*dA*dT*d[5mC]*dA*dG*dG*d[5mC]*dA*kT*kT*k[5mC]; antisense) [compound 830205] | 26
51 | 830206 (kT*kG*kA*d[5mC]*dT*d[5mC]*dA*dT*d[5mC]*dA*dG*dG*d[5mC]*kA*kT*kT; antisense) [compound 830206] | 51
52 | 830209 (kA*k[5mC]*k[5mC]*dG*dG*dA*dA*dG*dT*d[5mC]*dT*dT*dG*kT*kA*kT; antisense) [compound 830209] | 31
53 | 830210 (kG*kA*k[5mC]*d[5mC]*dG*dG*dA*dA*dG*dT*d[5mC]*dT*dT*kG*kT*kA; antisense) [compound 830210] | 29
54 | 830211 (kA*kG*kA*d[5mC]*d[5mC]*dG*dG*dA*dA*dG*dT*d[5mC]*dT*kT*kG*kT; antisense) [compound 830211] | 30
